For experiment [1], the target named is T1, prostacyclin receptor (IPR) (Homo sapiens, UniProt P43119).
T1 construct: gene PTGIR
The experiment in a line: cAMP accumulation (LANCE) in human lung fibroblasts, endogenous receptor; partial agonist. Format: cell-based.

The target in experiment [2] is T1, prostacyclin receptor (IPR). The experiment is described as follows: cAMP accumulation (LANCE) in human lung fibroblasts, endogenous receptor; about […] blocked by IPR antagonist RO-1138452. Format: cell-based.

T1 sequence (P43119 1-383): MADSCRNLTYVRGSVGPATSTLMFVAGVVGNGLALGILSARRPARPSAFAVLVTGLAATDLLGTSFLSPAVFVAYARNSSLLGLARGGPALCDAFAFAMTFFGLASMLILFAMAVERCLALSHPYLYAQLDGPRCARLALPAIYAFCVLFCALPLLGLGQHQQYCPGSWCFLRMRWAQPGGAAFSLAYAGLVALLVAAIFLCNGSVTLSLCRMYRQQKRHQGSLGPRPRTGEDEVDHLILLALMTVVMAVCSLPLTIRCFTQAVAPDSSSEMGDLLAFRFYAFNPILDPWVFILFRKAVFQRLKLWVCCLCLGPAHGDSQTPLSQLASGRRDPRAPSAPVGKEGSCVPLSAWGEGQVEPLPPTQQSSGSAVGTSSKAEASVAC

In experiment [1], `CC(C)N(CCCCOCC(=O)O)c1cnc(-c2ccccc2)c(-c2ccccc2)n1` [MRE-269, {4-[(5,6-Diphenylpyrazin-2-yl)(isopropyl)amino]butoxy}acetic Acid] showed an EC50 of 200 nM.

On to `CCCCC[C@H](O)CC[C@@H]1[C@H]2Cc3cccc(OCC(=O)O)c3C[C@H]2C[C@H]1O` [treprostinil], for which, in experiment [2], a half-maximal effect (EC50) was put at 64 nM.

Broadly, the EC50 is the concentration giving half of the maximal effect. Low values mean greater potency, high ones weaker potency.

(Values after article PMC8116805, “Inhibition of the Proliferation of Human Lung Fibroblasts by Prostacyclin Receptor Agonists is Linked to a Sustained cAMP Signal in the Nucleus” (Frontiers in Pharmacology, 2021).)
